Source: the RepoRT retention time repository (doi:10.1016/j.jhazmat.2019.121712)

assay: Thermo Scientific Acclaim RSLC 120 C18, 100 × 2.1 mm, 2.2 µm, 30 °C; A: 90% water + 10% methanol + 0.01% formic acid + 5 mM ammonium formate; B: methanol + 0.01% formic acid + 5 mM ammonium formate; gradient (min/%B) 0.1/1 3/39 14/99.9 16/99.9; conditions: stereoisomer not certain

Structure (SMILES) | LC retention time
CCOP(=O)(OCC)Oc1cc(C)nc(C(C)C)n1 | 8.65 min
C(=Cc1ccccc1)CN1CCN(C(c2ccccc2)c2ccccc2)CC1 | 9.86 min
CCOP(=O)(NC(C)C)Oc1ccc(S(C)(=O)=O)c(C)c1 (centres undefined) | 7.21 min
CCCSc1cc(OC)c(CCN)cc1OC | 6.98 min
NNC(N)=O | 1.33 min
CNC(=O)C(C)SCCSP(=O)(OC)OC (centres undefined) | 5.02 min
CNCCOC(c1ccccc1)c1ccccc1C (centres undefined) | 7.54 min
CCCc1nn(C)c2c(=O)[nH]c(-c3cc(C(=O)N4CCN(CC)CC4)ccc3OCC)nc12 | 6.78 min
O=C1NC(=O)C(c2ccccc2)(c2ccccc2)N1 | 7.08 min
OC(CCN1CCCC1)(c1ccccc1)C1CCCCC1 (centres undefined) | 7.8 min
CCCN1CCCCC1C(=O)Nc1c(C)cccc1C (centres undefined) | 5.39 min
CCC1OC(=O)C(C)C(OC2CC(C)(OC)C(O)C(C)O2)C(C)C(OC2OC(C)CC(NC)C2O)C(C)(OC)CC(C)C(=O)C(C)C(O)C1(C)O (centres undefined) | 9.16 min
Cc1occc1C(=O)Nc1ccccc1 | 7.59 min
NCC(O)c1ccccc1 (centres undefined) | 2.84 min
CCOC(=O)NC(=S)Nc1ccccc1NC(=S)NC(=O)OCC | 8.61 min
COc1cc(NC(C)CCCN)c2ncccc2c1 (centres undefined) | 6.82 min
CCOC(=O)C(CCc1ccccc1)NC(C)C(=O)N1Cc2ccccc2CC1C(=O)O (centres undefined) | 9.03 min
CCc1cc(OC)c(CCN)cc1OC | 6.48 min
COc1cccc(C(=O)NN(C(=O)c2cc(C)cc(C)c2)C(C)(C)C)c1C | 9.56 min
c1ccc(C2(N3CCCCC3)CCCCC2)cc1 | 5.74 min
CCOP(=O)(SC(C)CC)SC(C)CC (centres undefined) | 11.5 min
CCCCCCn1cc(C(=O)c2cccc3ccccc23)c2ccccc21 | 12.9 min
Cc1ccc(NC=O)c(C)c1 | 6.67 min

Structure (SMILES) | LC retention time
NC(=O)c1ccccc1O | 4.76 min
CC1(C)OCC2OC3(C(=O)O)OC(C)(C)OC3C2O1 (centres undefined) | 4.76 min
Cn1nc2ccccc2n1 | 5.11 min
CCNCC(O)c1cccc(O)c1 (centres undefined) | 2.66 min
CCOP(=S)(OCC)Oc1ccc([N+](=O)[O-])cc1 | 10.7 min
O=C(NC1CCN(CCc2c[nH]c3ccccc23)CC1)c1ccccc1 | 5.37 min
CCCC(C(=O)c1ccc(C)cc1)N1CCCC1 (centres undefined) | 6.03 min
CCOP(=S)(OCC)SC1OCCOC1SP(=S)(OCC)OCC (centres undefined) | 12.1 min
CCCc1nn(C)c2c(=O)[nH]c(-c3cc(S(=O)(=O)N4CCCCC4)ccc3OCC)nc12 | 10.9 min
S=c1nc[nH]c2nc[nH]c12 | 2.61 min
CCc1nnc(NS(=O)(=O)c2ccc(N)cc2)s1 | 4.81 min
CC(O)CCCn1cc(C(=O)c2cccc3ccccc23)c2ccccc21 (centres undefined) | 10.1 min
CCC1(C2OC(C3OC(O)(CO)C(C)CC3C)CC2C)CCC(C2(C)CCC3(CC(O)C(C)C(C(C)C(OC)C(C)C(=O)O)O3)O2)O1 (centres undefined) | 13.8 min
CCCc1nn(C)c2c(=S)nc(-c3cc(S(=O)(=O)N4CCN(C)CC4)ccc3OCC)[nH]c12 | 10.6 min
COC(=O)C1=COC(C)C2CN3CCc4c([nH]c5ccccc45)C3CC12 (centres undefined) | 6.66 min
CNC(=O)Oc1ccccc1C1OCCO1 | 5.16 min
CN(C)C(CCOc1cccc2ccccc12)c1ccccc1 (centres undefined) | 8.34 min
N=C1NC(=O)C(c2ccccc2)O1 (centres undefined) | 4.34 min
C=C(c1ccc(C(=O)O)cc1)c1cc2c(cc1C)C(C)(C)CCC2(C)C | 14.1 min
CCCCCn1nc(C(=O)NC(C(N)=O)C(C)(C)C)c2ccccc21 (centres undefined) | 11.2 min
COc1cnc(NS(=O)(=O)c2ccc(N)cc2)nc1 | 4.18 min
CNC(=O)Oc1cccc2c1OC(C)(C)C2 | 7.01 min
O=C(O)c1cccc(Oc2ccccc2)c1 | 9.38 min

Structure (SMILES) | LC retention time
COC(=O)c1ccccc1C(=O)c1ccc(OCCN2CCCCC2)cc1 | 5.44 min
O=C(O)CCCCC1SCC2NC(=O)NC21 (centres undefined) | 4.44 min
CCOC(=O)Nc1cccc(OC(=O)Nc2ccccc2)c1 | 8.57 min
Cc1c(NC(C)C)c(=O)n(-c2ccccc2)n1C | 5.72 min
COc1ccc2c3c1OC1C(O)C=CC4C(C2)NCCC341 (centres undefined) | 3.5 min
CC1(C)C(C(=O)c2cn(CC3CCOCC3)c3ccccc23)C1(C)C | 11.4 min
CN1CCN(C)C1=O | 3.53 min
CC(C(=O)O)c1cccc(C(=O)c2ccccc2)c1 (centres undefined) | 8.53 min
CCN(CC)CCOC(=O)c1ccc(N)cc1 | 3.21 min
CCCSP(=O)(OCC)SCCC | 10.2 min
COP(=S)(OC)Oc1ccc(S(N)(=O)=O)cc1 | 6.19 min
CC(=O)Nc1nnc(S(N)(=O)=O)s1 | 3.43 min
CCN(Cc1ccncc1)C(=O)C(CO)c1ccccc1 (centres undefined) | 6.03 min
O=C1c2ccccc2C(=O)C1C(=O)C(c1ccccc1)c1ccccc1 | 8.6 min
COCCc1ccc(OCC(O)CNC(C)C)cc1 (centres undefined) | 4.93 min
CCN(CC)C(=O)c1cccnc1 | 4.64 min
CCN(CC)C(=O)C(C)Oc1cccc2ccccc12 (centres undefined) | 10.2 min
CCCc1nn(C)c2c(=O)[nH]c(-c3cc(C(=O)CN4CCN(CC=Cc5ccccc5)CC4)ccc3OCC)nc12 | 9.28 min
CCCCCCCn1cc(C(=O)c2cccc3ccccc23)c2ccccc21 | 13.4 min
c1ccc(C2CN3CCSC3=N2)cc1 (centres undefined) | 3.68 min
CCCCCCCCOC(=O)c1ccccc1C(=O)OCCCCCCCC | 15.3 min
C#CC[N+](C)([O-])C(C)Cc1ccccc1 (centres undefined) | 5.33 min
COc1cc2nc(N3CCN(C(=O)C4CCCO4)CC3)nc(N)c2cc1OC (centres undefined) | 4.92 min

Structure (SMILES) | LC retention time
COP(=S)(NC(C)C)Oc1ccccc1C(=O)OC(C)C (centres undefined) | 11.7 min
CN(CC=Cc1ccccc1)Cc1cccc2ccccc12 | 8.52 min
OCc1cc(C(O)CNCCCCCCOCCCCc2ccccc2)ccc1O (centres undefined) | 8.83 min
C#CC1(O)CCC2C3CCC4=CC(=O)CCC4C3CCC21C (centres undefined) | 9.15 min
CC(=O)Nc1ccc(-c2ccc(C=NN3CC(=O)NC3=O)o2)cc1 | 5.67 min
Cc1ccc(NC(=O)NC(C)(C)c2ccccc2)cc1 | 9.68 min
CC12CCC(O)CC1CCC1C2C(=O)CC2(C)C1CCC2(O)C(=O)CO (centres undefined) | 9.21 min
COCCN(C(=O)CS(=O)(=O)O)c1c(C)cccc1C | 5.54 min
CC(C)C(NC(=O)c1nn(CC2CCCCC2)c2ccccc12)C(N)=O (centres undefined) | 11.3 min
COC1C=COC2(C)Oc3c(C)c(O)c4c(O)c(c5c(nc6cc(C)ccn65)c4c3C2=O)NC(=O)C(C)=CC=CC(C)C(O)C(C)C(O)C(C)C(OC(C)=O)C1C (centres undefined) | 10.1 min
CCOP(=S)(OCC)SCS(=O)(=O)C(C)(C)C | 9.01 min
c1cncc(C2CCCCN2)c1 (centres undefined) | 2.94 min
COC(=O)C1=C(C)NC(C)=C(C(=O)OC)C1c1ccccc1[N+](=O)[O-] | 8.31 min
CCOc1ccc(C(C)(C)COCc2cccc(Oc3ccccc3)c2)cc1 | 14.1 min
CC1C(=O)OC2CC[N+]3([O-])CC=C(COC(=O)C(C)(O)C1(C)O)C23 (centres undefined) | 3.19 min
CCCc1cc(OC)c(CCN)cc1OC | 7.46 min
CCNc1nc(NCC)nc(SC)n1 | 8.14 min
COc1ccc2c(c1)N(CC(C)CN(C)C)c1ccccc1S2=O (centres undefined) | 5.98 min
COC(C)C(O)(C(=O)OCC1=CC[N+]2([O-])CCC(O)C12)C(C)C (centres undefined) | 3.49 min
NCCc1ccccc1 | 3.57 min
CCCCc1ncc(C=C(Cc2cccs2)C(=O)O)n1Cc1ccc(C(=O)O)cc1 | 7.49 min
CC(=O)Nc1ccc(S(=O)(=O)Nc2nccs2)cc1 | 4.24 min
N#Cc1ccc2c(c1)N(CCCN1CCC(O)CC1)c1ccccc1S2 | 7.45 min

Structure (SMILES) | LC retention time
CC(C)CNC(=O)N1CCNC1=O | 5.74 min
CCN(CCO)CCn1c(Cc2ccccc2)nc2c1c(=O)n(C)c(=O)n2C | 5.24 min
CNC(=O)Oc1ccccc1C(C)C | 8.12 min
CCCNC(C)C(=O)Nc1ccccc1C (centres undefined) | 4.69 min
CCCNC(C)Cc1ccccc1 (centres undefined) | 4.83 min
COCC(C)N(C(=O)C(=O)O)c1c(C)csc1C (centres undefined) | 6.36 min
CN1CCC(=C2c3ccccc3C=Cc3ccccc32)CC1 | 7.89 min
CCCCn1cc(C(=O)c2cccc3ccccc23)c2ccc(O)cc21 | 10.6 min
CNC(=O)Oc1cccc2c1OC(C)(C)O2 | 7.02 min
CN=C(NC#N)NCCSCc1nc[nH]c1C | 3.24 min
Cc1nnc(-c2ccccc2)c(=O)[nH]1 | 5.29 min
CC12CC3CC(C)(C1)CC(N)(C3)C2 | 6.91 min
CC(C)=CC1C(C(=O)OCN2C(=O)C3=C(CCCC3)C2=O)C1(C)C (centres undefined) | 12.2 min
CC(C)=CC1C(C(=O)OCc2coc(Cc3ccccc3)c2)C1(C)C (centres undefined) | 13.6 min
CCOP(=S)(OCC)Oc1cc(C)nc(N(CC)CC)n1 | 12.3 min
COc1ccc(Cc2nccc3cc(OC)c(OC)cc23)cc1OC | 6.27 min
CCCCCn1cc(C(=O)c2cccc3ccccc23)c2ccc(O)cc21 | 11.2 min
NS(=O)(=O)Cc1noc2ccccc12 | 4.53 min
CC(C)NCC(O)COc1ccc(CC(=O)O)cc1 (centres undefined) | 3.93 min
CCc1cccc(CC)c1N(COC)C(=O)CS(=O)(=O)O | 7.19 min
COc1ccc(CC(C)NCC(O)c2ccc(O)c(NC=O)c2)cc1 (centres undefined) | 4.79 min
C=CC(N)CCC(=O)O (centres undefined) | 1.38 min
